Measured values: the supplement of paper PMC13380429

How the values were obtained:
Conditions in all cases: 72 h
Calu-3 [1] = assay: relative viability EC50 (midpoint between 100% and the lowest measured viability); higher = less toxic
Vero E6 [2] = assay: as above
U2OS [3] = assay: as above
HepG2 [4] = assay: as above
Caco-2 [5] = assay: as above
Calu-3 [6] = assay: drug sensitivity score (DSS) for viability; higher = more toxic; extreme values may be limits of the assay
Vero E6 [7] = assay: as above
U2OS [8] = assay: as above
HepG2 [9] = assay: as above
Caco-2 [10] = assay: as above
Calu-3 [11] = assay: cell viability relative to DMSO; higher = less toxic
Vero E6 [12] = assay: as above
U2OS [13] = assay: as above
HepG2 [14] = assay: as above
Caco-2 [15] = assay: as above

SMILES	relative viability EC50 (Calu-3 [1])	relative viability EC50 (Vero E6 [2])	relative viability EC50 (U2OS [3])	relative viability EC50 (HepG2 [4])	relative viability EC50 (Caco-2 [5])	drug sensitivity score (Calu-3 [6])	drug sensitivity score (Vero E6 [7])	drug sensitivity score (U2OS [8])	drug sensitivity score (HepG2 [9])	drug sensitivity score (Caco-2 [10])	cell viability (Calu-3 [11]; 1 nM)	cell viability (Calu-3 [11]; 10 nM)	cell viability (Calu-3 [11]; 100 nM)	cell viability (Calu-3 [11]; 1000 nM)	cell viability (Calu-3 [11]; 10000 nM)	cell viability (Vero E6 [12]; 1 nM)	cell viability (Vero E6 [12]; 10 nM)	cell viability (Vero E6 [12]; 100 nM)	cell viability (Vero E6 [12]; 1000 nM)	cell viability (Vero E6 [12]; 10000 nM)	cell viability (U2OS [13]; 1 nM)	cell viability (U2OS [13]; 10 nM)	cell viability (U2OS [13]; 100 nM)	cell viability (U2OS [13]; 1000 nM)	cell viability (U2OS [13]; 10000 nM)	cell viability (HepG2 [14]; 1 nM)	cell viability (HepG2 [14]; 10 nM)	cell viability (HepG2 [14]; 100 nM)	cell viability (HepG2 [14]; 1000 nM)	cell viability (HepG2 [14]; 10000 nM)	cell viability (Caco-2 [15]; 1 nM)	cell viability (Caco-2 [15]; 10 nM)	cell viability (Caco-2 [15]; 100 nM)	cell viability (Caco-2 [15]; 1000 nM)	cell viability (Caco-2 [15]; 10000 nM)
CC(C)c1cc(CNc2nc(Nc3cc(C4CC4)[nH]n3)cc(N3CCN(C)CC3)n2)on1 [XL228]	0.593 µM	1.35 µM	0.47 µM	0.266 µM	1.22 µM	8.8	7.8	15.1	16.2	6.7	95.7%	99.3%	87.3%	61.5%	33.9%	94%	97.8%	101%	75.3%	23%	104%	103%	84.8%	30%	0%	95.3%	98.3%	62.4%	40.6%	7.4%	111%	94.4%	93%	72.5%	33.1%
CC1(C)OC(=O)C(OCC2CC2)=C1c1ccc(S(C)(=O)=O)cc1 [firocoxib]	> 10 µM	> 10 µM	> 10 µM	> 10 µM	> 10 µM	0	0	0	0	3.5	95.9%	93.2%	95.6%	110%	104%	100%	101%	99.2%	96.4%	98.2%	96.7%	107%	95.3%	97.2%	102%	105%	97.7%	104%	103%	101%	98.3%	91.8%	84.1%	83.4%	86.5%
O=C(O)CCC(=O)OC[C@@H](NC(=O)C(Cl)Cl)[C@H](O)c1ccc([N+](=O)[O-])cc1 [chloramphenicol-sodium-succinate]	> 10 µM	> 10 µM	> 10 µM	> 10 µM	> 10 µM	0	0	0	0	0	108%	97.1%	97.3%	91%	106%	104%	104%	96.5%	102%	97.2%	100%	96.9%	98.1%	99.3%	102%	105%	114%	88.3%	103%	96.3%	103%	95.1%	98.2%	100%	103%
N#Cc1ccc(-c2ccc(S(=O)(=O)Nc3cccc(N)n3)cc2)cc1	> 10 µM	> 10 µM	> 10 µM	> 10 µM	> 10 µM	0	0	0	1	0	99.6%	104%	98.9%	107%	104%	97.4%	96.3%	95.9%	93.9%	90.8%	101%	97.2%	101%	99.4%	95.1%	100%	98.3%	104%	97.6%	79%	87.9%	95.5%	95.4%	96.7%	91%
O=C(O)c1cc([N+](=O)[O-])ccc1NCCCc1ccccc1 [NPPB]	> 10 µM	> 10 µM	> 10 µM	> 10 µM	> 10 µM	0	0	0	0	0	99.7%	105%	101%	114%	96.2%	94.9%	98.3%	90.5%	94%	105%	101%	98.3%	100%	96.4%	94.8%	91.7%	101%	97.5%	102%	99.9%	102%	87.7%	93.5%	95.5%	94.5%
O=C(O)C(=O)Nc1cccc(-c2nnn[nH]2)c1 [acitazanolast]	> 10 µM	> 10 µM	> 10 µM	> 10 µM	> 10 µM	0	0	0	0	0	100%	107%	91.3%	105%	99%	98.7%	99.5%	99.4%	100%	97.4%	99.8%	98.4%	99.3%	101%	96%	94.8%	99%	101%	96.3%	110%	100%	86.7%	88.4%	95.9%	97.1%
N#CC(Cc1ccc(O)cc1)c1ccc(O)cc1 (stereo not given) [diarylpropionitrile]	> 10 µM	> 10 µM	> 10 µM	> 10 µM	> 10 µM	0	0	0	0	0	108%	91.2%	100%	94.3%	103%	99.4%	104%	99.1%	102%	94.8%	99.6%	99.4%	98.7%	102%	102%	98.7%	90.3%	99.6%	89.2%	102%	99%	103%	88.4%	100%	95.3%
